Data on one molecule can be found in publication PMC7281429, “Chromenopyrimidinone Controls Stemness and Malignancy by suppressing CD133 Expression in Hepatocellular Carcinoma” (Cancers, 2020).

In this assay the target is T1, topoisomerase I (Homo sapiens, UniProt P11387).
T1 construct: gene TOP1
T1 sequence (P11387 2-765): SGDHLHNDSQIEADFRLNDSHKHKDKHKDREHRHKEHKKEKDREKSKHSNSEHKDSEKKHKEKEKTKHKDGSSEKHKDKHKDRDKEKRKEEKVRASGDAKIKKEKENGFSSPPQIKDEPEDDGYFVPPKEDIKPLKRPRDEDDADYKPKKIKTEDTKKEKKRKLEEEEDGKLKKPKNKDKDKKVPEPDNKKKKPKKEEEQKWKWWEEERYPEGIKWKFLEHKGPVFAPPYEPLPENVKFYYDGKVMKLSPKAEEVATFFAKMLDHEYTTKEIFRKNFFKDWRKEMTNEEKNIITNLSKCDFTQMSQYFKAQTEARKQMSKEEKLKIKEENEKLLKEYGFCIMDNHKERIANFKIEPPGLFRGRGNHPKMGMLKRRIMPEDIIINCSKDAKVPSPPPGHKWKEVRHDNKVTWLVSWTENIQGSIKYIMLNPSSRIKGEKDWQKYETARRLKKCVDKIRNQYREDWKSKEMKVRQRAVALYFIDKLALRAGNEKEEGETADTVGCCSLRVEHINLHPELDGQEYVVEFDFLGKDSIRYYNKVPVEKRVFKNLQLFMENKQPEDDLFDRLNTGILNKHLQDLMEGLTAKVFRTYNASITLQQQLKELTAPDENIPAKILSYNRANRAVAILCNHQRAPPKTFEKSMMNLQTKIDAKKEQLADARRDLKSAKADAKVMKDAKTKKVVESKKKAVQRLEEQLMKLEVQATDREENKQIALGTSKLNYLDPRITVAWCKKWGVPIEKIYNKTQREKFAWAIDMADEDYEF
Briefly: plasmid DNA relaxation assay (supercoiled pBR322, agarose gel) with commercial human topoisomerase I. The format is biochemical.

Turning to `O=c1[nH]c(-c2ccc(O)cc2)nc2c1Cc1c(ccc3ccccc13)O2` [CPO, chromenopyrimidinone], the EC50 (as a rule, the concentration giving half of the maximal effect) worked out at 3.6 µM. That is a single-digit micromolar value.
